Assay [1] has as its target T1, 5-HT1A serotonin receptor (Rattus norvegicus, UniProt P19327).
T1 sequence (P19327 1-422): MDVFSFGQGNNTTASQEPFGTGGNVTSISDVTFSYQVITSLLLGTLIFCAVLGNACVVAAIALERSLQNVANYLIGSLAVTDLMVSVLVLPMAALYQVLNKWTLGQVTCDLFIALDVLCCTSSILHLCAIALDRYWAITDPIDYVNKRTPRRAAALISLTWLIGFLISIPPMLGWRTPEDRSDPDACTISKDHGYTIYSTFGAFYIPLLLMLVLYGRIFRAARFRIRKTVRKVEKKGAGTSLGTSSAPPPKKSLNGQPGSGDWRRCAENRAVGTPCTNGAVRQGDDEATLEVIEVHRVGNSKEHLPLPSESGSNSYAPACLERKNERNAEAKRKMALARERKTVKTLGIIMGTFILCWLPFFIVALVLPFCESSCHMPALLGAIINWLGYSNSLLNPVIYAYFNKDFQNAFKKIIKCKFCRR
In words: displacement of [3H] 8-OH DPAT from the 5-HT1A serotonin receptor (procedure of Hall et al.). The class given is binding. The settings on record: for inhibition at 0.1 µM / inhibition at 1 µM: read-out: Affinity for 5HT1A Receptor % Inhibition; for IC50: [3H] 8-OH DPAT displacement, read-out: Affinity for 5HT1A Receptor IC50. (Displacement assays read how much labelled ligand stays bound in the presence of the test substance.)
From the text: 8-OH DPAT (dipropylaminotetralin) from the 5-HT1A serotonin receptor by the procedure of Hall et al., J. Neurochem.

For the next assay, the target named is D2 dopamine receptor (Rattus norvegicus, UniProt P61169). The assay is described as follows: D2 dopamine receptor binding study with 3H-spiroperiodol in homogenized limbic brain tissue. Conditions: read-out: Affinity for D2 Receptor % Inhibition. On the procedure: The D2 dopamine receptor binding study was in accordance with a modification of the procedure of Field et al., Brain Res., 136, pp. 578-584 (1977) and Yamamura et al., eds., Neurotransmitter Receptor Binding, Raven Press, N.Y. (1978), wherein homogenized limbic brain tissue is incubated with ^3H-spiroperiodol and various concentrations of test compounds, filtered and washed and shaken with Hydrofluoro scintillation cocktail (National Diagnostics) and counted in a Packard 460CD scintillation counter.
D2 dopamine receptor, sequence (P61169 whole entry): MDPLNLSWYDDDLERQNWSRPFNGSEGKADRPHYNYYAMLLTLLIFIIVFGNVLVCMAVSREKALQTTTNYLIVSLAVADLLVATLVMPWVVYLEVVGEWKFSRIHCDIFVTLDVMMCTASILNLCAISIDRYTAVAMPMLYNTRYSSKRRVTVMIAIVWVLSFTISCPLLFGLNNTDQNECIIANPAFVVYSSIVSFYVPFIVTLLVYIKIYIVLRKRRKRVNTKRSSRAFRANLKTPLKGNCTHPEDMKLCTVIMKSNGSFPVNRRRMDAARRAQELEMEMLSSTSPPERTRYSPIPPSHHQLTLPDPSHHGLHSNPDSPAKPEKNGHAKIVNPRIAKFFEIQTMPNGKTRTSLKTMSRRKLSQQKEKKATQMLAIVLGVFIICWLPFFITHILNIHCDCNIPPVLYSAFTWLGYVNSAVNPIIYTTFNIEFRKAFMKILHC

Regarding `COc1ccccc1N1CCN(CCC(=O)NC2(C)CCCCC2)CC1` [Example 4, 4-(2-Methoxyphenyl)-N-(1-methylcyclohexyl)-1-piperazinepropanamide], the inhibition (usually the relative decrease from the control value, in per cent) at 0.1 µM in assay [1] turned out to be 56%.
Take `COc1ccccc1N1CCN(CCC(=O)NC(C)(C)C)CC1` [Example 6, N-(1,1-Dimethylethyl)-3-[4-(2-methoxyphenyl)-1-piperazinyl]-propanamide]: in assay [1], the IC50 – broadly, the concentration that inhibits the measured activity by half – stood at 287 nM; the inhibition at 0.1 µM amounted to 18%; the inhibition at 1 µM amounted to 72%.
Take `COc1ccccc1N1CCN(CC(C(=O)NC(C)(C)C)c2ccccc2)CC1` (racemic) [Example 2, N-Tertiary-butyl 3-[4-(2-methoxyphenyl)piperazinyl]-2-phenyl-propanamide]: in assay [1], the concentration for half-maximal inhibition (IC50) worked out at 25 nM, the inhibition at 0.1 µM is 69% and the inhibition at 1 µM was determined as 86%. Further, at D2 dopamine receptor (at 0.1 µM), the inhibition at 0.1 µM was 8%. The inhibition at 1 µM on D2 dopamine receptor (at 1 µM) came to 32%.
`COc1ccccc1N1CCN(CC(Cc2ccccc2)C(=O)NC(C)(C)C)CC1` (racemic) [Example 3, N-Tertiary-butyl 2-[[4-(2-methoxyphenyl)piperazinyl]methyl]-3-phenyl-propanamide]: in assay [1], the IC50 was found to be 11.4 nM, the inhibition at 0.1 µM turned out to be 90% and the inhibition at 1 µM is 100%. Further, the inhibition at 10 µM on D2 dopamine receptor (at 10 µM) turned out to be 38%.

The record behind these values is patent publication EP0395313B1, “Tertiary alkyl functionalized piperazine derivatives” (AMERICAN HOME PRODUCTS CORPORATION, priority 1989, dated 1990).
